Reference: PMC2801581 (Journal of medicinal chemistry, 2009)
Read-outs that look alike come from different tables or passages of the source.

What was measured:
CD45 [1] = target: T1, CD45 (Homo sapiens, UniProt P08575); assay: CD45 counterscreen; assay type: biochemical; conditions: read-out: IC50 CD45 (DiFMUP)
T1 sequence (P08575 653-912 limits assumed): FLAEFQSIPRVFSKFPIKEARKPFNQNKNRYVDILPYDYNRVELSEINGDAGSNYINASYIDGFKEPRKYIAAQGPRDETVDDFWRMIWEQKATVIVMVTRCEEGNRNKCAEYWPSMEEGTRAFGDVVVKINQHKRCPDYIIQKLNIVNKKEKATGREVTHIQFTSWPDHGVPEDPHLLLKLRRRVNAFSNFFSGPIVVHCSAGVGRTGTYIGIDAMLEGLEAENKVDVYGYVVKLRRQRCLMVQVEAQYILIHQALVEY

CD45 [2] = system: CD45
HePTP = target: T2, HePTP (Homo sapiens, UniProt P35236); assay: HePTP counterscreen; assay type: biochemical; conditions: read-out: IC50 HePTP (DiFMUP)
T2 sequence (P35236 65-360): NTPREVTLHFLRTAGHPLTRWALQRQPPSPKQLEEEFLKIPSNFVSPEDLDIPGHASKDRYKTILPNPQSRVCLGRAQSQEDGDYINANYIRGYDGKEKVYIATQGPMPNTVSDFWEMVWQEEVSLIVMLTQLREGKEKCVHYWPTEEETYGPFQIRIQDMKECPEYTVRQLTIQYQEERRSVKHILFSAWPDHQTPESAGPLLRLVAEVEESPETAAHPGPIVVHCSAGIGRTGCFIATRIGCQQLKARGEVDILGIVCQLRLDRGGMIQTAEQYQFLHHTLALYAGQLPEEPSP

LYP [3] = assay: Intracellular LYP inhibition in JTAg cells, anti-pLck; assay type: cell-based, human
CD45 [4] = target: T3, CD45 (Homo sapiens, UniProt P08575); assay: Intracellular CD45 inhibition in JTAg cells, anti-pLck; assay type: cell-based
T3 sequence (P08575 26-1306): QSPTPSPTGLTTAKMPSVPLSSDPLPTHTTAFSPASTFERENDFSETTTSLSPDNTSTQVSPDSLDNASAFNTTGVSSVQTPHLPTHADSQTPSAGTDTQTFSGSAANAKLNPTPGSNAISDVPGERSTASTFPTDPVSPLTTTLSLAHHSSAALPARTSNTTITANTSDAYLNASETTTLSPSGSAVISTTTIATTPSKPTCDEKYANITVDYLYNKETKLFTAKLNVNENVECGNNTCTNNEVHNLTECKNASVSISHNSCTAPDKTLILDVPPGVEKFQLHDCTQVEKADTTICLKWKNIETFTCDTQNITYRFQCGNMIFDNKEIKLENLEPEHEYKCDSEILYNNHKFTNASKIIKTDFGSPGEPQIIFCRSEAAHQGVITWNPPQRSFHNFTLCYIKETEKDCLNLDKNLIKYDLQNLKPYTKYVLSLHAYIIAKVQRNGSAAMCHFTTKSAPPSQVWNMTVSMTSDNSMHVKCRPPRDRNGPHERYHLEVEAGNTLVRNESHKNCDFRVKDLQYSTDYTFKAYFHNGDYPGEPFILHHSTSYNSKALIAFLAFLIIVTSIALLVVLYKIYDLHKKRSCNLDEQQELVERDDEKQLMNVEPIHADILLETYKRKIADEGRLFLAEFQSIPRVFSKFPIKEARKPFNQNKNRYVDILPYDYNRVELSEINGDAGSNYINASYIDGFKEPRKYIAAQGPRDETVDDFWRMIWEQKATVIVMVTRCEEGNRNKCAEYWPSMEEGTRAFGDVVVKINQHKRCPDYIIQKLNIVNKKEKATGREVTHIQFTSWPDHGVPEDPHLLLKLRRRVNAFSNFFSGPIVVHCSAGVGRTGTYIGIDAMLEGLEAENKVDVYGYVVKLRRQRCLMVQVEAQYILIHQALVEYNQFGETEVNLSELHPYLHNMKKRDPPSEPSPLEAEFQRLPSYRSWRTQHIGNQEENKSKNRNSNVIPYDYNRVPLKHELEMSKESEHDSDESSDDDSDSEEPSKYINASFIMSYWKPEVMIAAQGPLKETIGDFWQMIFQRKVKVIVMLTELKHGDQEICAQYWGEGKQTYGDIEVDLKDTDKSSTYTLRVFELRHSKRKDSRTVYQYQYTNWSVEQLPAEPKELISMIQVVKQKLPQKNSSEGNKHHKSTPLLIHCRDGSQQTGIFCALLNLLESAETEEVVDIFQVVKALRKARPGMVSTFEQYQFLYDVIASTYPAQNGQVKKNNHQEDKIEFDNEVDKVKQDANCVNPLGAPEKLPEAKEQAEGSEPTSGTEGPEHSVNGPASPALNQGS

PTP-PEST = target: T4, PTP-PEST (Homo sapiens, UniProt Q05209); assay: PTP-PEST inhibition assay with fluorogenic substrates; assay type: biochemical; conditions: pH 6.5
T4 sequence (Q05209 2-323): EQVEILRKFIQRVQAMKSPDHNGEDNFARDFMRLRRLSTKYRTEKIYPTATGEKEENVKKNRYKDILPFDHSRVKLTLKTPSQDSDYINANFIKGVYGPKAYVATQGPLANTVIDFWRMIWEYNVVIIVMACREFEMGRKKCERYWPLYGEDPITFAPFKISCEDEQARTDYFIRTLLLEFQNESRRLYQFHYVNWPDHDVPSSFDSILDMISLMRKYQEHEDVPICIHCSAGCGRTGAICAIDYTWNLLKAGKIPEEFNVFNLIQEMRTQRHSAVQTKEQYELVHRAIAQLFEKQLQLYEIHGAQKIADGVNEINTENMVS

LYP [5] = system: LYP
LYP [6] = target: T5, LYP (Homo sapiens, UniProt Q9Y2R2); assay: LYP inhibition assay with fluorogenic substrates; assay type: biochemical; conditions: for IC50: pH 6.5
T5 sequence (Q9Y2R2 2-309): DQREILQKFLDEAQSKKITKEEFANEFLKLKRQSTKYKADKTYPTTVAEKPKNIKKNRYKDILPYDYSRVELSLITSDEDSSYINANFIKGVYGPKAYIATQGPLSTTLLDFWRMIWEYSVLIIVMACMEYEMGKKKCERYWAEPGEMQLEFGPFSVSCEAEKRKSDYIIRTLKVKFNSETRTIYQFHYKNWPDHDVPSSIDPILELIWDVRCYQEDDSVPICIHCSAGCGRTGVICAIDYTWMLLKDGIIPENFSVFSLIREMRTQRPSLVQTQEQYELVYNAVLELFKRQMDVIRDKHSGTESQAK

For `[Cl][Au][PH](c1ccccc1)(c1ccccc1)c1ccccn1` [Compound 17, Diphenyl-2-pyridylphosphine-Au(I)-Cl], the IC50 (CD45 [1]) was greater than 150 µM, the “CD45 activity in primary mouse thymocytes (pLck Tyr505)” value (CD45 [2]) was “not CD45 activity” and the IC50 (HePTP) was 35 ± 2 µM. The “phosphorylation of Lck at Y394 (LYP activity in cells)” value (LYP [3]) was “increase in phosphorylation at Y394”, the “phosphorylation of Lck at Y505 (CD45 activity in cells)” value (CD45 [4]) was “no change in phosphorylation levels at position Y505” and the IC50 (PTP-PEST; read-out: IC50 PEST (DiFMUP)) was 76 ± 3 µM. The IC50 (PTP-PEST; read-out: IC50 PEST (peptide 1)) was 43 ± 3 µM, the “LYP activity in primary mouse thymocytes (pLck Tyr394)” value (LYP [5]) was “appears to inhibit LYP activity” and the “LYP versus PTP-PEST inhibition in comparative library screen” value (LYP [6]) was “more potent inhibitors of LYP than PTP-PEST regardless of the substrate used”. For the same compound, the “selectivity for LYP over PTP-PEST in dose-response screens” value (LYP [6]) was “selective for LYP over the ~ 70% identical PTP-PEST”, the IC50 (LYP [6]; read-out: IC50 LYP (DiFMUP)) was 5 ± 0.2 µM and the IC50 (LYP [6]; read-out: IC50 LYP (peptide 1)) was 1.5 ± 0.3 µM.
